The results in this text go back to US8729062B2, “Benzyl azetidine derivatives as sphingosine 1-phosphate (S1P) receptor modulators” (Allergan, Inc., priority 2010, dated 2014).

Each structure is given as a SMILES string. pEC50: −log10 of the molar value.

Broadly, the pEC50 is the EC50 on a negative log10 scale, so that one unit is a factor of ten. Low values mean a large EC50, high ones a small EC50.

T1 sequence (P21453 whole entry): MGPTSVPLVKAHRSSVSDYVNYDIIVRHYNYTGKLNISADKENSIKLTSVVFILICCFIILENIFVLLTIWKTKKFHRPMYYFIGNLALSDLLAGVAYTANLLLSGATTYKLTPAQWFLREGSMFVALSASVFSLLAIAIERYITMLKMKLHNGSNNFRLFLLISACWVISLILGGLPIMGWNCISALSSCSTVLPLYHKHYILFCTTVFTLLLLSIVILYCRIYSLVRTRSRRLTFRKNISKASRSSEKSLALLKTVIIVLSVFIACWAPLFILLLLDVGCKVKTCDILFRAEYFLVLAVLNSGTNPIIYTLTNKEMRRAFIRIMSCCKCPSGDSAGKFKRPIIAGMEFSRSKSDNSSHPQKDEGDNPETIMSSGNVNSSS

This test addresses T1, human S1P1 receptor (Homo sapiens, UniProt P21453).
T1 construct: expressed in transfected cells; membranes used
Nature of the test: GTP γ35S binding assay for S1P1 activity. The class given is biochemical. The following applies: membranes of cells stably expressing S1P1 receptor, agonist potency, test range 0.08 to 5,000 nM. The protocol: Compounds were synthesized and tested for S1P1 activity using the GTP γ^35S binding assay. These compounds may be assessed for their ability to activate or block activation of the human S1P1 receptor in cells stably expressing the S1P1 receptor.
GTP γ^35S binding was measured in the medium containing (mM) HEPES 25, pH 7.4, MgCl2 10, NaCl 100, dithitothreitol 0.5, digitonin 0.003%, 0.2 nM GTP γ^35S, and 5 μg membrane protein in a volume of 150 μl. Test compounds were included in the concentration range from 0.08 to 5,000 nM unless indicated otherwise. Membranes were incubated with 100 μM 5′-adenylylimmidodiphosphate for 30 min, and subsequently with 10 μM GDP for 10 min on ice. Drug solutions and membrane were mixed, and then reactions were initiated by adding GTP γ^35S and continued for 30 min at 25° C. Reaction mixtures were filtered over Whatman GF/B filters under vacuum, and washed three times with 3 mL of ice-cold buffer (HEPES 25, pH7.4, MgCl2 10 and NaCl 100). Filters were dried and mixed with scintillant, and counted for ^35S activity using a […]. Agonist-induced GTP γ^35S binding was obtained by subtracting that in the absence of agonist. Binding data were analyzed using a non-linear regression method. In case of antagonist assay, the reaction mixture contained 10 nM S1P in the presence of test antagonist at concentrations ranging from 0.08 to 5000 nM.
(Binding of GTPγS marks nucleotide exchange on a G protein.)
`Cc1ccc(CC(c2cccc(F)c2)c2nc(-c3ccc(CN4CC(C(=O)O)C4)cc3)no2)cc1C` (centres unmarked) [Compound 2, 1-(4-{5-[1-(3-fluorophenyl)-2-(3,4-dimethylphenyl)ethyl]-1,2,4-oxadiazol-3-yl}benzyl)azetidine-3-carboxylic acid] showed a pEC50 of 8.82.

In the case of `O=C(O)C1CN(Cc2ccc(-c3noc(C(CC4CCCCC4)c4cccc(Cl)c4)n3)cc2)C1` (centres unmarked) [1-(4-{5-[1-(3-chlorophenyl)-2-cyclohexylethyl]-1,2,4-oxadiazol-3-yl}benzyl)azetidine-3-carboxylic acid], the pEC50 was 5.91. For `Cc1ccc(CC(c2cc(F)cc(F)c2)c2nc(-c3ccc(CN4CC(C(=O)O)C4)cc3)no2)cc1C` (centres unmarked) [1-(4-{5-[1-(3,5-difluorophenyl)-2-(3,4-dimethylphenyl)ethyl]-1,2,4-oxadiazol-3-yl}benzyl)azetidine-3-carboxylic acid] the value was 7.77; for `Cc1ccc(CC(c2nc(-c3ccc(CN4CC(C(=O)O)C4)cc3)no2)c2cccs2)cc1` (centres unmarked) [1-(4-{5-[2-(4-methylphenyl)-1-(2-thienyl)ethyl]-1,2,4-oxadiazol-3-yl}benzyl)azetidine-3-carboxylic acid], 6.68; for `Cc1ccc(CC(c2nc(-c3ccc(CN4CC(C(=O)O)C4)cc3)no2)c2cccs2)cc1C` (centres unmarked) [1-(4-{5-[2-(3,4-dimethylphenyl)-1-(2-thienyl)ethyl]-1,2,4-oxadiazol-3-yl}benzyl)azetidine-3-carboxylic acid], 6.87.

Molecule `Cc1cc(C)cc(C(Cc2ccc(C)c(C)c2)c2nc(-c3ccc(CN4CC(C(=O)O)C4)cc3)no2)c1` (centres unmarked) [1-(4-{5-[2-(3,4-dimethylphenyl)-1-(3,5-dimethylphenyl)ethyl]-1,2,4-oxadiazol-3-yl}benzyl)azetidine-3-carboxylic acid] gave a pEC50 of 6.27. For `Cc1ccc(CC(c2cncc(Cl)c2)c2nc(-c3ccc(CN4CC(C(=O)O)C4)cc3)no2)cc1C` (centres unmarked) [1-(4-{5-[1-(5-chloropyridin-3-yl)-2-(3,4-dimethylphenyl)ethyl]-1,2,4-oxadiazol-3-yl}benzyl)azetidine-3-carboxylic acid] the value was 7.52; for `Cc1ccc(CC(c2ccsc2)c2nc(-c3ccc(CN4CC(C(=O)O)C4)cc3)no2)cc1C` (centres unmarked) [1-(4-{5-[2-(3,4-dimethylphenyl)-1-(3-thienyl)ethyl]-1,2,4-oxadiazol-3-yl}benzyl)azetidine-3-carboxylic acid], 7.12. As for `Cc1ccc(CC(c2cccc(Cl)c2)c2nc(-c3ccc(CN4CC(C(=O)O)C4)cc3)no2)cc1C` (centres unmarked) [Compound 1, 1-(4-{5-[1-(3-Chlorophenyl)-2-(3,4-dimethylphenyl)ethyl]-1,2,4-oxadiazol-3-yl}benzyl)azetidine-3-carboxylic acid], the figure is 8.42.

Take `Cc1ccc(CC(c2ccsc2)c2nc(-c3ccc(CN4CC(C(=O)O)C4)cc3)no2)cc1` (centres unmarked) [1-(4-{5-[2-(4-methylphenyl)-1-(3-thienyl)ethyl]-1,2,4-oxadiazol-3-yl}benzyl)azetidine-3-carboxylic acid]: the negative logarithm of the EC50 (pEC50) is 6.84. For `Cc1ccc(CC(c2cccc(C(F)(F)F)c2)c2nc(-c3ccc(CN4CC(C(=O)O)C4)cc3)no2)cc1C` (centres unmarked) [1-[4-(5-{2-(3,4-dimethylphenyl)-1-[3-(trifluoromethyl)phenyl]ethyl}-1,2,4-oxadiazol-3-yl)benzyl]azetidine-3-carboxylic acid], the pEC50 is 7.05.
